{"source": "patent US4992449A", "about": "“7-(substituted)cycloalkylamino-1 -(substituted)-6-fluoro-1,4-dihydro-4-oxo-3-quinolinecarboxylic acids” (American Cyanamid Company, priority 1990, dated 1991)", "assay_in_all_cases": "In vitro antibacterial MIC, agar plate dilution", "type_in_all_cases": "cell-based", "key": {"[1]": {"test_system": "Serratia marcescens MOR 84-41", "settings": "MOR8441, Mueller-Hinton agar, 10^4 CFU, 18 hours, 35° C.", "protocol": "(§1) The in vitro antimicrobial spectrum of the compounds of this invention were determined by the agar plate dilution method with Mueller-Hinton agar and an inoculum of each test organism of approximately 10^4 colony forming units delivered by the Steers replicating device. The minimal inhibitory concentration (MIC) in mcg/ml is defined as the lowest concentration of test compound that inhibited visible growth after 18 hours incubation at 35° C. Results are given in Table I, with the test compounds identified by the number of their hereinafter described examples"}, "[2]": {"test_system": "Pseudomonas aeruginosa VGH 84-16", "settings": "VGH8416, Mueller-Hinton agar, 10^4 CFU, 18 hours, 35° C.", "protocol": "as §1"}, "[3]": {"test_system": "Escherichia coli MOR 84-20", "settings": "MOR8420, Mueller-Hinton agar, 10^4 CFU, 18 hours, 35° C.", "protocol": "as §1"}, "[4]": {"test_system": "Serratia marcescens CMC 83-74", "settings": "CMC8374, Mueller-Hinton agar, 10^4 CFU, 18 hours, 35° C.", "protocol": "as §1"}, "[5]": {"test_system": "Enterobacter cloacae MOR 84-30", "settings": "MOR8430, Mueller-Hinton agar, 10^4 CFU, 18 hours, 35° C.", "protocol": "as §1"}, "[6]": {"test_system": "Enterobacter cloacae K 84-10", "settings": "K8410, Mueller-Hinton agar, 10^4 CFU, 18 hours, 35° C.", "protocol": "as §1"}, "[7]": {"test_system": "Morganella morganii MOR 84-45", "settings": "MOR8445, Mueller-Hinton agar, 10^4 CFU, 18 hours, 35° C.", "protocol": "as §1"}, "[8]": {"test_system": "Moranella morganii CMC 84-38", "settings": "Mueller-Hinton agar, 10^4 CFU, 18 hours, 35° C.", "protocol": "as §1"}, "[9]": {"test_system": "Klebsiella neumoniae CMC 84-31", "settings": "CMC8431, Mueller-Hinton agar, 10^4 CFU, 18 hours, 35° C.", "protocol": "as §1"}, "[10]": {"test_system": "Pseudomonas aeruginosa CMC 83-20", "settings": "CMC8320, Mueller-Hinton agar, 10^4 CFU, 18 hours, 35° C.", "protocol": "as §1"}, "[11]": {"test_system": "Escherichia coli VGH 84-19", "settings": "VGH8419, Mueller-Hinton agar, 10^4 CFU, 18 hours, 35° C.", "protocol": "as §1"}, "[12]": {"test_system": "Morganella morganii CMC 84-37", "settings": "CMC8437, 18 h, Table II, read-out: MIC", "protocol": "as §1"}, "[13]": {"test_system": "Providencia stuartii CMC 83-3", "settings": "CMC833, Mueller-Hinton agar, 10^4 CFU, 18 hours, 35° C.", "protocol": "as §1"}, "[14]": {"test_system": "Serratia marcescens VGH 84-30", "settings": "VGH8430, 18 h, Table II, read-out: MIC", "protocol": "as §1"}, "[15]": {"test_system": "Staphylococcus aureus VGH 84-45", "settings": "VGH8445, 18 h, Table II, read-out: MIC", "protocol": "as §1"}, "[16]": {"test_system": "Streptococcus faecalis UCI 85-19", "settings": "Enterococcus faecalis, UCI8519, 18 h, Table II, read-out: MIC", "protocol": "as §1"}, "[17]": {"test_system": "Streptococcus faecalis UCI 85-30", "settings": "Enterococcus faecalis, UCI8530, Mueller-Hinton agar, 10^4 CFU, 18 hours, 35° C.", "protocol": "as §1"}, "[18]": {"test_system": "Staphylococcus aureus ATCC 29213", "settings": "Staphylococcus aureus, ATCC29213, 18 h, read-out: MIC", "protocol": "as §1"}, "[19]": {"test_system": "Enterobacter cloacae VGH 84-39", "settings": "VGH8439, Mueller-Hinton agar, 10^4 CFU, 18 hours, 35° C.", "protocol": "as §1"}, "[20]": {"test_system": "Staphylococcus faecalis VGH 84-69", "settings": "VGH8469, Mueller-Hinton agar, 10^4 CFU, 18 hours, 35° C.", "protocol": "as §1"}, "[21]": {"test_system": "Serratia marcescens IO 83-63", "settings": "IO8363, Mueller-Hinton agar, 10^4 CFU, 18 hours, 35° C.", "protocol": "as §1"}, "[22]": {"test_system": "Pseudomonas aeruginosa LL-1244", "settings": "Pseudomonas aeruginosa, LL1244, 18 h, Table II, read-out: MIC", "protocol": "as §1"}, "[23]": {"test_system": "Proteus rettgeri CMC 84-41", "settings": "Providencia rettgeri, CMC8441, 18 h, Table II, read-out: MIC", "protocol": "as §1"}, "[24]": {"test_system": "Staphylococcus aureus K 82-26", "settings": "K8226, Mueller-Hinton agar, 10^4 CFU, 18 hours, 35° C.", "protocol": "as §1"}, "[25]": {"test_system": "Pseudomonas aeruginosa VGH 84-4", "settings": "Pseudomonas aeruginosa, VGH844, 18 h, Table II, read-out: MIC", "protocol": "as §1"}, "[26]": {"test_system": "Klebsiella neumoniae IO 83-5", "settings": "IO835, Mueller-Hinton agar, 10^4 CFU, 18 hours, 35° C.", "protocol": "as §1"}, "[27]": {"test_system": "Escherichia coli CMC 84-50", "settings": "CMC8450, Mueller-Hinton agar, 10^4 CFU, 18 hours, 35° C.", "protocol": "as §1"}, "[28]": {"test_system": "Moranella morganii VGH 84-12", "settings": "Mueller-Hinton agar, 10^4 CFU, 18 hours, 35° C.", "protocol": "as §1"}, "[29]": {"test_system": "Staphylococcus aureus VGH 84-47", "settings": "VGH8447, Mueller-Hinton agar, 10^4 CFU, 18 hours, 35° C.", "protocol": "as §1"}, "[30]": {"test_system": "Streptococcus faecalis VGH 84-65", "settings": "Enterococcus faecalis, VGH8465, 18 h, Table II, read-out: MIC", "protocol": "as §1"}, "[31]": {"settings": "Table I, Mueller-Hinton agar, 10^4 CFU, 18 hours, 35° C."}}, "note": "Like-named read-outs stand apart in the source and are kept apart here.", "data": [{"smiles": "N[C@H]1CCC[C@H]1Nc1cc2c(cc1F)c(=O)c(C(=O)O)cn2-c1ccc(F)cc1", "note": "(relative stereo) [Example 3]", "values": [{"measurement": "MIC", "setting": "[1]", "value": 4, "unit": "µg/mL"}, {"measurement": "MIC", "setting": "[2]", "value": "> 16", "unit": "µg/mL"}, {"measurement": "MIC", "setting": "[3]", "value": 2, "unit": "µg/mL"}, {"measurement": "MIC", "setting": "[4]", "value": "> 16", "unit": "µg/mL"}, {"measurement": "MIC", "setting": "[5]", "value": 8, "unit": "µg/mL"}, {"measurement": "MIC", "setting": "[6]", "value": 2, "unit": "µg/mL"}, {"measurement": "MIC", "setting": "[7]", "value": 4, "unit": "µg/mL"}, {"measurement": "MIC", "setting": "[8]", "value": 8, "unit": "µg/mL"}, {"measurement": "MIC", "setting": "[9]", "value": 4, "unit": "µg/mL"}, {"measurement": "MIC", "setting": "[10]", "value": "> 16", "unit": "µg/mL"}, {"measurement": "MIC", "setting": "[11]", "value": 2, "unit": "µg/mL"}, {"measurement": "MIC", "setting": "[12]", "value": 4, "unit": "µg/mL"}, {"measurement": "MIC", "setting": "[13]", "value": "> 16", "unit": "µg/mL"}, {"measurement": "MIC", "setting": "[14]", "value": 8, "unit": "µg/mL"}, {"measurement": "MIC", "setting": "[15]", "value": 4, "unit": "µg/mL"}, {"measurement": "MIC", "setting": "[16]", "value": 64, "unit": "µg/mL"}, {"measurement": "MIC", "setting": "[17]", "value": "> 16", "unit": "µg/mL"}, {"measurement": "MIC", "setting": "[18]; [31]", "value": 4, "unit": "µg/mL"}, {"measurement": "MIC", "setting": "[18]; Table II", "value": 4, "unit": "µg/mL"}, {"measurement": "MIC", "setting": "[19]", "value": 2, "unit": "µg/mL"}, {"measurement": "MIC", "setting": "[20]", "value": "> 16", "unit": "µg/mL"}, {"measurement": "MIC", "setting": "[21]", "value": 4, "unit": "µg/mL"}, {"measurement": "MIC", "setting": "[22]", "value": 16, "unit": "µg/mL"}, {"measurement": "MIC", "setting": "[23]", "value": 4, "unit": "µg/mL"}, {"measurement": "MIC", "setting": "[24]", "value": 4, "unit": "µg/mL"}, {"measurement": "MIC", "setting": "[25]", "value": 16, "unit": "µg/mL"}, {"measurement": "MIC", "setting": "[26]", "value": 4, "unit": "µg/mL"}, {"measurement": "MIC", "setting": "[27]", "value": 4, "unit": "µg/mL"}, {"measurement": "MIC", "setting": "[28]", "value": 4, "unit": "µg/mL"}, {"measurement": "MIC", "setting": "[29]", "value": 4, "unit": "µg/mL"}, {"measurement": "MIC", "setting": "[30]", "value": 64, "unit": "µg/mL"}]}, {"smiles": "CCn1cc(C(=O)O)c(=O)c2cc(F)c(N[C@@H]3CCC[C@@H]3N)cc21", "note": "(relative stereo) [Example 4, Cis-7-[(2-Aminocyclopentyl)amino]-1-ethyl-6-fluoro-1,4-dihydro-4-oxo-3-quinolinecarboxylic acid]", "values": [{"measurement": "MIC", "setting": "[1]", "value": 1, "unit": "µg/mL"}, {"measurement": "MIC", "setting": "[2]", "value": "> 16", "unit": "µg/mL"}, {"measurement": "MIC", "setting": "[3]", "value": 1, "unit": "µg/mL"}, {"measurement": "MIC", "setting": "[4]", "value": "> 16", "unit": "µg/mL"}, {"measurement": "MIC", "setting": "[5]", "value": 4, "unit": "µg/mL"}, {"measurement": "MIC", "setting": "[6]", "value": 1, "unit": "µg/mL"}, {"measurement": "MIC", "setting": "[7]", "value": 0.5, "unit": "µg/mL"}, {"measurement": "MIC", "setting": "[8]", "value": 1, "unit": "µg/mL"}, {"measurement": "MIC", "setting": "[9]", "value": 2, "unit": "µg/mL"}, {"measurement": "MIC", "setting": "[10]", "value": "> 16", "unit": "µg/mL"}, {"measurement": "MIC", "setting": "[11]", "value": 1, "unit": "µg/mL"}, {"measurement": "MIC", "setting": "[12]", "value": 4, "unit": "µg/mL"}, {"measurement": "MIC", "setting": "[13]", "value": "> 16", "unit": "µg/mL"}, {"measurement": "MIC", "setting": "[14]", "value": 16, "unit": "µg/mL"}, {"measurement": "MIC", "setting": "[15]", "value": 64, "unit": "µg/mL"}, {"measurement": "MIC", "setting": "[16]", "value": 32, "unit": "µg/mL"}, {"measurement": "MIC", "setting": "[17]", "value": 4, "unit": "µg/mL"}, {"measurement": "MIC", "setting": "[18]; [31]", "value": 4, "unit": "µg/mL"}, {"measurement": "MIC", "setting": "[18]; Table II", "value": 128, "unit": "µg/mL"}, {"measurement": "MIC", "setting": "[19]", "value": 1, "unit": "µg/mL"}, {"measurement": "MIC", "setting": "[20]", "value": 4, "unit": "µg/mL"}, {"measurement": "MIC", "setting": "[21]", "value": 1, "unit": "µg/mL"}, {"measurement": "MIC", "setting": "[22]", "value": 32, "unit": "µg/mL"}, {"measurement": "MIC", "setting": "[23]", "value": 8, "unit": "µg/mL"}, {"measurement": "MIC", "setting": "[24]", "value": 1, "unit": "µg/mL"}, {"measurement": "MIC", "setting": "[25]", "value": 64, "unit": "µg/mL"}, {"measurement": "MIC", "setting": "[26]", "value": 2, "unit": "µg/mL"}, {"measurement": "MIC", "setting": "[27]", "value": 2, "unit": "µg/mL"}, {"measurement": "MIC", "setting": "[28]", "value": 2, "unit": "µg/mL"}, {"measurement": "MIC", "setting": "[29]", "value": 2, "unit": "µg/mL"}, {"measurement": "MIC", "setting": "[30]", "value": 32, "unit": "µg/mL"}]}]}
